Experiment [1] concerns Hep 3B2. As to the kind of experiment: Cytotoxicity against human Hep3B cells assessed as inhibition of cell proliferation incubated for 48 hrs by MTT assay. It is filed as functional, cell-based. On the technique in general: Tetrazolium dyes change colour on reduction, which living cells bring about.
The test system of the next experiment is HepG2. Nature of the experiment: Cytotoxicity against human HepG2 cells assessed as inhibition of cell proliferation incubated for 48 hrs by MTT assay. It is filed as functional, cell-based. Particulars: HepG2, 48 h.
Experiment [2] has as its system Hep 3B2. Nature of the experiment: Induction of apoptosis in human Hep3B cells assessed as viable cells at 3 uM incubated for 48 hrs by Annexin V-FITC/PI staining based flow cytometry analysis (reference value: 87.1%). It is filed as functional. Particulars: read-out: Activity.
The test system of experiment [3] is Hep 3B2. Nature of the experiment: Induction of apoptosis in human Hep3B cells assessed as early apoptotic cells at 3 uM incubated for 48 hrs by Annexin V-FITC/PI staining based flow cytometry analysis (reference value: 1.26%). It is filed as functional. A general note: In flow cytometry, cells or beads pass a laser one at a time.
The subject of experiment [4] is Hep 3B2. As to the kind of experiment: Induction of apoptosis in human Hep3B cells assessed as late apoptotic cells at 3 uM incubated for 48 hrs by Annexin V-FITC/PI staining based flow cytometry analysis (reference value: […]%). It is filed as functional.
Experiment [5] relates to Hep 3B2. As to the kind of experiment: Induction of apoptosis in human Hep3B cells assessed as necrotic cells at 3 uM incubated for 48 hrs by Annexin V-FITC/PI staining based flow cytometry analysis (reference value: 6.12%). It is filed as functional.
The test system of experiment [6] is Hep 3B2. Nature of the experiment: Induction of apoptosis in human Hep3B cells assessed as late apoptotic cells at 3 uM incubated for 48 hrs by Annexin V-FITC/PI staining based flow cytometry analysis (reference value: 0.117%). It is filed as functional.
Experiment [7] concerns Hep 3B2. As to the kind of experiment: Induction of apoptosis in human Hep3B cells assessed as viable cells at 3 uM incubated for 48 hrs by Annexin V-FITC/PI staining based flow cytometry analysis (reference value: 95.3%). It is filed as functional. Particulars: read-out: Activity.
In experiment [8] the test system is Hep 3B2. Nature of the experiment: Induction of apoptosis in human Hep3B cells assessed as early apoptotic cells at 3 uM incubated for 48 hrs by Annexin V-FITC/PI staining based flow cytometry analysis (reference value: 4.54%). It is filed as functional.
Experiment [9] deals with Hep 3B2. As to the kind of experiment: Induction of apoptosis in human Hep3B cells assessed as necrotic cells at 3 uM incubated for 48 hrs by Annexin V-FITC/PI staining based flow cytometry analysis (reference value: 0%). It is filed as functional.

Bounds are passed on as bounds.

The term IC50 denotes the point on the concentration scale where inhibition reaches its midpoint. In the case of `COc1c(-c2ccc(O)c(CC=C(C)C)c2)oc2cc(O)cc(O)c2c1=O`, the concentration for half-maximal inhibition (IC50) was 0.99 µM in the experiment on Hep 3B2 [1] and 50.5 µM in the experiment on HepG2. Besides, in the experiment with Hep 3B2 [2], the viability at 3 µM turned out to be 87.1%. Besides, the Activity in the experiment on Hep 3B2 [3] was determined as 1.97%; in the experiment on Hep 3B2 [4] it was 8.68%; in the experiment on Hep 3B2 [5] it was 2.29%.
As to `COc1c(-c2ccc(O)c(O)c2)oc2c(CC=C(C)C)c(O)c(CC=C(C)C)c(O)c2c1=O`, the IC50 with Hep 3B2 [1] is 17.7 µM; with HepG2, 43.3 µM.
Taken in the same sequence, the figures for `COc1c(-c2cc(O)c(O)c(CC=C(C)C)c2)oc2c3c(cc(O)c2c1=O)OC(C(C)(C)O)C3` (centres undefined) were 3.62 µM and over 50 µM.
For `CC(C)=CCc1cc([C@H]2Oc3cc(O)ccc3C[C@H]2O)cc(CC=C(C)C)c1O` the same measures were over 50 µM and over 50 µM.
For the molecule `COc1c(-c2cc(O)c(O)c(CC=C(C)C)c2)oc2c(CC=C(C)C)c(O)cc(O)c2c1=O`, the Activity is 9.35% in the experiment on Hep 3B2 [6], 41.2% in the experiment on Hep 3B2 [8] and 0.121% with Hep 3B2 [9]. Moreover, the IC50 in the experiment on Hep 3B2 [1] is 1.07 µM; in the experiment on HepG2, 32.6 µM. Moreover, the viability at 3 µM in the experiment on Hep 3B2 [7] is 49.3%.
On to `C=C(C)C(O)Cc1cc(-c2oc3c(CC=C(C)C)c(O)cc(O)c3c(=O)c2OC)cc(O)c1O` (centres undefined), for which the IC50 was 1.05 µM with Hep 3B2 [1] and over 50 µM in the experiment on HepG2. Also, in the experiment on Hep 3B2 [2], the viability at 3 µM was found to be 14.2%. For the same molecule, the Activity in the experiment on Hep 3B2 [3] is recorded as 6.97%; in the experiment with Hep 3B2 [4] it was 76%; with Hep 3B2 [5], 2.75%.
For the molecule `COC1=C(c2ccc(O)cc2)Oc2c(CC=C(C)C)c(O)cc(O)c2C1O` (centres undefined), the IC50 is 3.96 µM in the experiment with Hep 3B2 [1] and 13.6 µM in the experiment with HepG2.
For `COc1c(-c2ccc(O)c(O)c2)oc2c(CC=C(C)C)c(O)cc(O)c2c1=O` the same measures were 2.39 µM and over 50 µM.
Taken in the same sequence, the figures for `CC(C)=CCc1cc([C@H]2Oc3c(CC=C(C)C)c(O)cc(O)c3C(=O)[C@@H]2O)cc(CC=C(C)C)c1O` were over 50 µM and over 50 µM.
For `CC(C)=CCc1cc([C@@H]2Oc3c(CC=C(C)C)c(O)cc(O)c3C(=O)[C@H]2O)cc(CC=C(C)C)c1O` the same measures were over 50 µM and over 50 µM.
As for `COc1c(-c2cc(O)c(O)c(CC=C(C)C)c2CC=C(C)C)oc2cc(O)cc(O)c2c1=O`, the concentration for half-maximal inhibition (IC50) in the experiment with Hep 3B2 [1] came to 33.5 µM; with HepG2, 39.1 µM.
As for `COc1c(-c2ccc(O)c(O)c2)oc2c3c(c(CC=C(C)C)c(O)c2c1=O)OC(C(C)(C)O)C3` (centres undefined), the IC50 in the experiment on Hep 3B2 [1] amounted to 8.89 µM; with HepG2, 26.9 µM.
On to `COc1c(-c2ccc(O)c(CC=C(C)C)c2)oc2c(CC=C(C)C)c(O)cc(O)c2c1=O`, for which the Activity in the experiment with Hep 3B2 [6] amounted to 10.7%; in the experiment on Hep 3B2 [8] it was 37.4%; with Hep 3B2 [9] it was 0.097%. Also, the half-inhibitory concentration (IC50) is 2.31 µM in the experiment with Hep 3B2 [1] and over 50 µM in the experiment with HepG2. Further, in the experiment on Hep 3B2 [7], the viability at 3 µM turned out to be 51.9%.
In the case of `CC1(C)C=Cc2cc(-c3oc4cc(O)cc(O)c4c(=O)c3O)cc(O)c2O1`, the results for the IC50 with Hep 3B2 [1] and in the experiment on HepG2 were 28.2 µM and over 50 µM, respectively.
For `C=C(C)C(O)Cc1c(O)c(CC=C(C)C)c2oc(-c3ccc(O)c(O)c3)c(OC)c(=O)c2c1O` (centres undefined), the IC50 was 37.1 µM in the experiment on Hep 3B2 [1] and over 50 µM in the experiment on HepG2.
On to `CC1(C)Oc2ccc(-c3oc4cc(O)cc(O)c4c(=O)c3O)cc2CC1O` (centres undefined), for which the IC50 with Hep 3B2 [1] is 9.55 µM; with HepG2 it was over 50 µM.
For `COc1c(-c2ccc(O)c(O)c2)oc2c(C/C=C(\C)CCC=C(C)C)c(O)cc(O)c2c1=O` the same measures were 4.8 µM and 30.4 µM.
With `C=C(C)C(O)Cc1cc(-c2oc3c(CC=C(C)C)c(O)cc(O)c3c(=O)c2OC)ccc1O` (centres undefined), the IC50 with Hep 3B2 [1] amounted to 0.41 µM; with HepG2, 42.2 µM. For the same molecule, the viability at 3 µM in the experiment on Hep 3B2 [2] is 59.7%. The values for the Activity in the experiment on Hep 3B2 [3], with Hep 3B2 [4] and in the experiment with Hep 3B2 [5] were 19.6%, 19.7% and 0.923%, respectively.
Regarding `COc1c(-c2cc(O)c3c(c2)CC(C(C)(C)O)O3)oc2c(CC=C(C)C)c(O)cc(O)c2c1=O` (centres undefined), the IC50 was 0.49 µM in the experiment with Hep 3B2 [1] and 47.4 µM with HepG2. Also, in the experiment on Hep 3B2 [2], the viability at 3 µM turned out to be 33.8%. Further, the values for the Activity in the experiment with Hep 3B2 [3], in the experiment on Hep 3B2 [4] and in the experiment with Hep 3B2 [5] were 15.4%, 48.2% and 2.55%, respectively.
As for `COc1c(-c2cc(O)c3c(c2)CC(O)C(C)(C)O3)oc2c(CC=C(C)C)c(O)cc(O)c2c1=O` (centres undefined), the IC50 in the experiment on Hep 3B2 [1] is 0.63 µM; with HepG2, 49.1 µM. For the same molecule, the viability at 3 µM with Hep 3B2 [2] was 23.3%. The Activity is on record as 21.9% in the experiment with Hep 3B2 [3], 52.4% in the experiment with Hep 3B2 [4] and 2.34% in the experiment with Hep 3B2 [5].
On to `COc1c(-c2cc3c(c(O)c2CC=C(C)C)OC(C)(C)C=C3)oc2c(CC=C(C)C)c(O)cc(O)c2c1=O`, for which the IC50 in the experiment with Hep 3B2 [1] was determined as 6.37 µM; in the experiment on HepG2, 30.7 µM.
For the molecule `CC(C)=CCc1cc(-c2oc3c(CC=C(C)C)c(O)cc(O)c3c(=O)c2O)ccc1O` [BROUSSOFLAVONOL F], the Activity amounted to 25.5% in the experiment with Hep 3B2 [6], 19.1% in the experiment with Hep 3B2 [8] and 0.251% in the experiment on Hep 3B2 [9]. Besides, the IC50 in the experiment with Hep 3B2 [1] amounted to 1.15 µM; in the experiment with HepG2, 30.8 µM. Further, the viability at 3 µM in the experiment on Hep 3B2 [7] was 55.1%.
Consider `CC(C)=CCc1cc(-c2oc3cc(O)cc(O)c3c(=O)c2O)ccc1O` [ISOLICOFLAVONOL], for which the IC50 was found to be 11.5 µM in the experiment on Hep 3B2 [1] and 44.7 µM in the experiment on HepG2.
As to `CNC(=O)c1cc(Oc2ccc(NC(=O)Nc3ccc(Cl)c(C(F)(F)F)c3)cc2)ccn1` [SORAFENIB], the IC50 in the experiment on Hep 3B2 [1] came to 8.55 µM.

(Values after ChEMBL document CHEMBL5352479, “Prenylated flavonoids with significant anti-hepatoma activity from Daphne giraldii and effects on Fibroblast Growth Factor Receptor 1 (FGFR1)” (Eur J Med Chem, 2023).)
